Assay: Activity against adenosine diphosphate (ADP) induced platelet aggregation

Structure (SMILES)	IC50
CCCCCCOc1c(OC)cc(CCCCc2scnc2C)cc1OC [5-[4-(4-Hexyloxy-3,5-dimethoxy-phenyl)-butyl]-4-methyl-thiazole]	13.5 µM
CCCCCCCCCCOc1c(OC)cc(C(=O)OCC[N+](C)(C)C)cc1OC [[2-(4-Decyloxy-3,5-dimethoxy-benzoyloxy)-ethyl]-trimethyl-ammonium; iodide]	2 µM
CCCCCCOc1c(OC)cc(C(=O)OCc2ccccc2C[N+](C)(C)C)cc1OC [[2-(4-Hexyloxy-3,5-dimethoxy-benzoyloxymethyl)-benzyl]-trimethyl-ammonium; iodide]	16 µM
CCCCCCCCOc1c(OC)cc(C(=O)OCCCC[N+](C)(C)C)cc1OC [[4-(3,5-Dimethoxy-4-octyloxy-benzoyloxy)-butyl]-trimethyl-ammonium; iodide]	13.8 µM

Next, values leading:

IC50	Structure (SMILES)
9.6 µM	CCCCCCOc1c(Cl)cc(C(=O)OCCCC[N+](C)(C)C)cc1OC [[4-(3-Chloro-4-hexyloxy-5-methoxy-benzoyloxy)-butyl]-trimethyl-ammonium; iodide]
2.9 µM	CCCCCCCCCCCCCCCCOc1c(OC)cc(C(=O)OCCCC[N+](C)(C)C)cc1OC [[4-(4-Hexadecyloxy-3,5-dimethoxy-benzoyloxy)-butyl]-trimethyl-ammonium; iodide]
12 µM	CCCCCCOc1c(C)cc(C(=O)OCCCC[N+](C)(C)C)cc1C [[4-(4-Hexyloxy-3,5-dimethyl-benzoyloxy)-butyl]-trimethyl-ammonium; iodide]
22.5 µM	CCCCCCOc1ccc(C(=O)OCCCC[N+](C)(C)C)cc1 [[4-(4-Hexyloxy-benzoyloxy)-butyl]-trimethyl-ammonium; iodide]
